Measured values reported in PubChem BioAssay (NCI).
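These data come from cells grown in 96-well plates and exposed to compound for 48 hours at five concentrations. Abbreviation: GI50, concentration required for 50% inhibition of growth. TGI denotes the concentration required for complete inhibition of growth.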

Assays:
Assay in all cases: DTP human tumour cell line panel, 48 h
[1] = tested on: A549 NSCLC
[2] = tested on: HCC-2998 colon
[3] = tested on: HOP-62 NSCLC
[4] = tested on: IGROV1 ovarian
[5] = tested on: NCI-H23 lung
[6] = tested on: NCI-H460 lung
[7] = tested on: SK-MEL-5 melanoma
[8] = tested on: SNB-75 CNS
[9] = tested on: SR leukemia
[10] = tested on: A498 renal

SMILES	TGI [1] [µM]	TGI [2] [µM]	TGI [3] [µM]	TGI [4] [µM]	TGI [5] [µM]	TGI [6] [µM]	TGI [7] [µM]	TGI [8] [µM]	TGI [9] [µM]	TGI [10] [µM]	GI50 [10] [µM]	GI50 [1] [µM]	GI50 [2] [µM]	GI50 [3] [µM]	GI50 [4] [µM]	GI50 [5] [µM]	GI50 [6] [µM]	GI50 [7] [µM]	GI50 [8] [µM]	GI50 [9] [µM]
COc1ccc(NS(=O)c2ccc(-c3ccccc3)cc2)cc1 (stereo not drawn)	> 100	> 100	> 100	> 100	> 100	> 100	> 100	62.5	> 100	–	–	–	–	–	–	–	–	–	–	–
CC1SC(c2ccccc2)N(Nc2c3ccccc3nc3ccccc23)C1=O (stereo not drawn)	> 100	> 100	> 100	> 100	> 100	> 100	> 100	> 100	> 100	–	–	–	–	–	–	–	–	–	–	–
COc1ccc(OC)c([N+](=O)[O-])c1-c1nc2sccn2c1/C=N/N=C(N)N	> 100	79.4	> 100	> 100	> 100	> 100	> 100	–	> 100	> 100	–	–	–	–	–	–	–	–	–	–
COc1cc2cc[n+](C)c(Cc3ccccc3)c2cc1OC	> 100	–	–	> 100	> 100	> 100	> 100	> 100	–	> 100	–	–	–	–	–	–	–	–	–	–
CN1CCN(c2ccc(-c3ccc4ncc(C#N)c(Nc5ccc(F)c(Cl)c5)c4c3)cc2)CC1	26.6	15.8	7.55	10.5	41.5	6.67	5.43	15.9	6.82	12.4	2.43	2.63	3.26	2.22	0.321	10.1	2.05	2.19	2.33	2.01
NCC[Se][Se]CCN	25.3	24.9	21.3	25.7	30.6	21.9	18.4	27.4	> 100	23.8	–	–	–	–	–	–	–	–	–	–
COc1ccc(-c2cc(-c3ccccc3)n(C3OCC(OC(C)=O)C(OC(C)=O)C3OC(C)=O)c(=S)c2C#N)cc1 (stereo not drawn)	> 100	> 100	> 100	> 100	> 100	> 100	> 100	> 100	> 100	> 100	–	–	–	–	–	–	–	–	–	–
Cc1nc2ccccc2c(=O)n1-c1n[nH]c2ccccc12	> 100	> 100	> 100	> 100	> 100	> 100	> 100	> 100	> 100	> 100	–	–	–	–	–	–	–	–	–	–
O=C(N/C(=C\c1ccccc1[N+](=O)[O-])c1nc2ccccc2[nH]1)c1ccccc1	–	> 100	–	> 100	> 100	–	> 100	–	> 100	–	–	–	–	–	–	–	–	–	–	–
O=[N+]([O-])c1ccc(N=Nc2c(O)ccc3cc(S(=O)(=O)O)ccc23)cc1	> 100	–	> 100	> 100	> 100	–	> 100	> 100	–	> 100	–	–	–	–	–	–	–	–	–	–
CCC(CS(=O)(=O)O)[N+](=O)[O-] (stereo not drawn)	> 100	> 100	> 100	> 100	> 100	> 100	> 100	> 100	–	> 100	–	–	–	–	–	–	–	–	–	–
O=C(CCCn1c(=O)c2sc3ccccc3c2n2nnc(-c3ccccc3)c12)NCCc1cnc[nH]1	–	4.15	5.27	–	11.6	3.8	4.11	4.03	–	3	1.55	–	1.77	2.32	–	2.92	1.87	1.91	1.86	–
CC(CN(C)C)C(=O)c1ccccc1C(=O)O (stereo not drawn)	> 100	–	85.8	> 100	89.1	–	> 100	–	–	> 100	–	–	–	–	–	–	–	–	–	–
Cc1nc(Cl)c(Cl)c(Cl)n1	3.25	7.04	0.974	0.344	2.1	6.33	1.97	2.7	–	4.81	–	–	–	–	–	–	–	–	–	–
C=C(C)[C@@H]1CC[C@]2(C)CC[C@]3(C)[C@H](CC[C@@H]4[C@@]5(C)CC[C@H](OC(=O)c6ccccc6)C(C)(C)[C@@H]5CC[C@]43C)[C@@H]12	> 100	> 100	> 100	> 100	> 100	> 100	> 100	> 100	> 100	> 100	–	–	–	–	–	–	–	–	–	–
Cn1c(NN)nc(-c2ccc([N+](=O)[O-])cc2)c(C#N)c1=O	43.4	26.5	27.1	39.9	26.2	36.4	17.3	34.7	43.8	–	–	–	–	–	–	–	–	–	–	–
CNC(C)Cc1ccccc1O (stereo not drawn)	> 100	> 100	> 100	> 100	> 100	> 100	> 100	> 100	> 100	> 100	–	–	–	–	–	–	–	–	–	–
Nc1ccc2c(c1)C1=NNC(=O)CC1C2 (stereo not drawn)	> 100	> 100	> 100	> 100	> 100	> 100	> 100	> 100	–	> 100	–	–	–	–	–	–	–	–	–	–
COc1cc(-c2n/c(=C\c3c(O)[nH]c4ccc(Cl)cc34)cc3c2=Nc2ccccc2-3)cc(OC)c1OC	–	11	0.783	4.09	3.85	–	5.63	4.84	4.8	4.71	1.76	–	2.98	0.383	0.685	1.05	–	1.83	1.72	0.445
